Source: patent US12509431B2, “1,4-dihydroquinazolinone compounds and uses thereof” (Edgewise Therapeutics, Inc., priority 2022, dated 2025)

Tests used:
Type in all cases: biochemical
Details in all cases: Table 8
[1] = target: T1, Porcine Ventricle myofibrils (left ventricle of Yucatan minipigs) (Sus scrofa, UniProt P79293); test: Myofibril ATPase assay (PK/LDH NADH-coupled), ventricle myofibrils
T1 construct: Myofibrils from porcine cardiac muscle was isolated from the left ventricle of Yucatan minipigs; tissue Exemplar Genetics; host or cells: left ventricle of Yucatan minipigs
T1 sequence (P79293 whole entry): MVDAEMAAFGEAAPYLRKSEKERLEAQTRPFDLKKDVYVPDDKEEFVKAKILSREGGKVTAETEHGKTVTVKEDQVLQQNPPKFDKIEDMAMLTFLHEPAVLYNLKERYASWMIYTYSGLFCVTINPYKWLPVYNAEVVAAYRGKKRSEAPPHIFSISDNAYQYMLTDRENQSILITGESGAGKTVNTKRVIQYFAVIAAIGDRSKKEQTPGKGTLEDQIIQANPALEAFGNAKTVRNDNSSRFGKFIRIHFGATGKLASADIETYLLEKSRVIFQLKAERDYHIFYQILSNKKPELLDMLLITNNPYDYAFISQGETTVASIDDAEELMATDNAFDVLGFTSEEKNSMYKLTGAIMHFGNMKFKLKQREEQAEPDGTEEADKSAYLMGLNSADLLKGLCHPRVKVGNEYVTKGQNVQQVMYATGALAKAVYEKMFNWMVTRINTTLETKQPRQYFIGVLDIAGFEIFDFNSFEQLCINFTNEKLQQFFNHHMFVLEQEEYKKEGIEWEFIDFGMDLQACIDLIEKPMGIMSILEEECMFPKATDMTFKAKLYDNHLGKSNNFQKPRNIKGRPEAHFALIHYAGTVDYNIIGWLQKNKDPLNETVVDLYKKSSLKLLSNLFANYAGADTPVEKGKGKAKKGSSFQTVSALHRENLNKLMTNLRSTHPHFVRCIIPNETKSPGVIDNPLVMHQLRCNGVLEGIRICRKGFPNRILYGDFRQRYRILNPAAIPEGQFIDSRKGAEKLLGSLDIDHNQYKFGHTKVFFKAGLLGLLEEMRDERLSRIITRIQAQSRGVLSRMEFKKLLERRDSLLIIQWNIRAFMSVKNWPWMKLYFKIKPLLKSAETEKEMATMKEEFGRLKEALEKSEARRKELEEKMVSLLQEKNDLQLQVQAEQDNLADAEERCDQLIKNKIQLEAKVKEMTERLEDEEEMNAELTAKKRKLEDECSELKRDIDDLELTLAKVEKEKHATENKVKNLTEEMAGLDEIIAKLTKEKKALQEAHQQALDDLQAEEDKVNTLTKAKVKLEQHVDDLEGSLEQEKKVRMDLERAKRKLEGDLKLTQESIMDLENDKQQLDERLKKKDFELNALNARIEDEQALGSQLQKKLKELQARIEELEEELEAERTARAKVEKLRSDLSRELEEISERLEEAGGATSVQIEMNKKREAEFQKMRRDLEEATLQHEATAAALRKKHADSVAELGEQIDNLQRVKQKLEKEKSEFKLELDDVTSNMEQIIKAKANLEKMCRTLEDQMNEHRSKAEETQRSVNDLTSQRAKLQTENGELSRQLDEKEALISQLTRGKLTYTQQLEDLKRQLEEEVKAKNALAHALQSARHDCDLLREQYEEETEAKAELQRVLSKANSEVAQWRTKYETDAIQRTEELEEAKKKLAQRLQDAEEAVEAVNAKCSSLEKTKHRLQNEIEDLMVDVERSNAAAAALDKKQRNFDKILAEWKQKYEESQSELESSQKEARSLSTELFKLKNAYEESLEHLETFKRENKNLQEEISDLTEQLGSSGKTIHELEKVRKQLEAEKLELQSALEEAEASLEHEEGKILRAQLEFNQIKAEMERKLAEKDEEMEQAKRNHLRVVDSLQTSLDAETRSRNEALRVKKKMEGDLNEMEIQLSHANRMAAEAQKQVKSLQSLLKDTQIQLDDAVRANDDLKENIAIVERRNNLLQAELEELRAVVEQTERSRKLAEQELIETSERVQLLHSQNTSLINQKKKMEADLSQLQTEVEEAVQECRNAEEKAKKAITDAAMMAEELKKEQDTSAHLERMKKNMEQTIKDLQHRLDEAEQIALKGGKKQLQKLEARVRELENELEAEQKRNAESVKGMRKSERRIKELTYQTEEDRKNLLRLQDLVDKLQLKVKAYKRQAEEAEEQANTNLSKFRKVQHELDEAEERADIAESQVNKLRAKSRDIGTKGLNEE
Procedure, shortened: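 Yucatan minipig left-ventricle myofibrils; ATPase measured by PK/LDH-coupled NADH loss at 340 nm, read every 1.5-2 min for 75 min. Slopes normalized to vehicle (100%) and fit to 4-parameter logistic model; EC25 and, for inhibitors, EC50 calculated.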

[2] = system: Rabbit Skeletal myofibrils (rabbit psoas muscle); test: Myofibril ATPase assay (PK/LDH NADH-coupled), skeletal myofibrils
Procedure, shortened: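 Rabbit psoas myofibrils in pCa (PIPES/CaCl2/EGTA, pH 7.0) buffer; ADP coupled via PK/LDH to NADH loss, read at 340 nm every 1.5–2 min for 75 min. Slopes normalized to vehicle (100%) and fit to 4-parameter logistic for EC25, plus EC50 for inhibitors.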

Porcine Atria myofibrils = test: Myofibril ATPase assay (PK/LDH NADH-coupled), atria myofibrils
Procedure, shortened: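 Porcine atrial myofibril ATPase followed via PK/LDH-coupled NADH depletion, absorbance at 340 nm read every 1.5-2 min over 75 min. Slopes (mAU/min) normalized to vehicle as 100% and fit to a 4-parameter logistic; EC25% derived, plus EC50% for inhibitors.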

SMILES	Porcine Ventricle IC25 [1] [nM]	Rabbit Psoas IC25 [2] [nM]	Porcine Atria IC25 (Porcine Atria myofibrils) [nM]
C[C@@H](NC(=O)CN1Cc2c(ccc(F)c2F)NC1=O)c1ccncc1F [Compound B99]	100000	100000	700
C[C@H](NC(=O)CN1Cc2c(ccc(F)c2F)NC1=O)c1ccncc1F [Compound B100]	740.9	124.6	30
O=C(CN1Cc2c(ccc(F)c2F)NC1=O)N[C@@H]1COc2c(F)cc(F)cc2C1 [Compound B101]	575.9	1059	150
O=C(CN1Cc2c(ccc(F)c2F)NC1=O)N[C@H]1COc2c(F)cc(F)cc2C1 [Compound B102]	6262	7621	100
C[C@@H](NC(=O)CN1Cc2c(ccc(F)c2F)NC1=O)c1c(F)cncc1F [Compound B103]	1132	426	30
C[C@H](NC(=O)CN1Cc2c(ccc(F)c2F)NC1=O)c1c(F)cncc1F [Compound B104]	100000	100000	2790
C[C@@H](NC(=O)CN1Cc2c(ccc(F)c2F)NC1=O)c1ncc(C#N)cn1 [Compound B105]	6381	4205	110
C[C@H](NC(=O)CN1Cc2c(ccc(F)c2F)NC1=O)c1ncc(C#N)cn1 [Compound B106]	476.5	302.8	90
C[C@@H](NC(=O)CN1Cc2c(ccc(F)c2F)NC1=O)c1ccc(C(F)(F)F)cn1 [Compound B107]	100000	100000	100000
C[C@H](NC(=O)CN1Cc2c(ccc(F)c2F)NC1=O)c1ccc(C(F)(F)F)cn1 [Compound B108]	3587	1400	460
C[C@@H](NC(=O)CN1Cc2c(ccc(F)c2F)NC1=O)c1ncncc1F [Compound B109]	100000	13900	12190
C[C@H](NC(=O)CN1Cc2c(ccc(F)c2F)NC1=O)c1ncncc1F [Compound B110]	559.5	55.8	40
C[C@@H](NC(=O)CN1Cc2c(ccc(F)c2C#N)NC1=O)c1ccc(C#N)cn1 [Compound B111]	100000	564	100000
C[C@H](NC(=O)CN1Cc2c(ccc(F)c2C#N)NC1=O)c1ccc(C#N)cn1 [Compound B112]	2318	79	1510
C[C@@H](NC(=O)CN1Cc2c(F)cccc2NC1=O)c1ccc(C#N)cc1F [Compound B113]	233	90.89	160
C[C@H](NC(=O)CN1Cc2c(F)cccc2NC1=O)c1ccc(C#N)cc1F [Compound B114]	167.3	20.8	120
C[C@@H](NC(=O)CN1Cc2c(C#N)cccc2NC1=O)c1ccc(C#N)cn1 [Compound B115]	100000	100000	100000
C[C@H](NC(=O)CN1Cc2c(C#N)cccc2NC1=O)c1ccc(C#N)cn1 [Compound B116, 2-(5-Cyano-2-oxo-1,4-dihydroquinazolin-3-yl)-N-[(1S)-1-(5-cyanopyridin-2-yl)ethyl]acetamide]	672.1	74.3	220

SMILES	Porcine Ventricle IC25 [1] [nM]	Rabbit Psoas IC25 [2] [nM]	Porcine Atria IC25 (Porcine Atria myofibrils) [nM]
N#Cc1cc(F)c2c(c1)OC[C@H]2NC(=O)CN1Cc2c(ccc(F)c2C#N)NC1=O [Compound B117]	1967	236.6	150
N#Cc1cc(F)c2c(c1)OC[C@@H]2NC(=O)CN1Cc2c(ccc(F)c2C#N)NC1=O [Compound B118]	110	13.6	70
N#Cc1ccc2c(c1)C1(CC1)N(CC(=O)N[C@@H]1COc3cc(F)cc(F)c31)C(=O)N2 [Compound B121]	166.5	67.7	120
N#Cc1ccc2c(c1)C1(CC1)N(CC(=O)N[C@H]1COc3cc(F)cc(F)c31)C(=O)N2 [Compound B122]	100000	100000	1310
N#Cc1cc(F)c2c(c1)OC[C@@H]2NC(=O)CN1Cc2c(ccc(F)c2F)NC1=O [Compound B124]	1870	326.2	360
C[C@@H](NC(=O)CN1Cc2c(C#N)cccc2NC1=O)c1ncc(C#N)cc1F [Compound B125]	100000	1552	1620
C[C@H](NC(=O)CN1Cc2c(C#N)cccc2NC1=O)c1ncc(C#N)cc1F [Compound B126]	346.1	40.06	70
C[C@@H](NC(=O)CN1Cc2c(ccc(C#N)c2F)NC1=O)c1ccc(C#N)cc1F [Compound B129]	100000	3992	260
C[C@@H](NC(=O)CN1Cc2c(ccc(F)c2C#N)NC1=O)c1ncc(C#N)cc1F [Compound B131]	100000	345.6	100000
C[C@H](NC(=O)CN1Cc2c(ccc(F)c2C#N)NC1=O)c1ncc(C#N)cc1F [Compound B132]	171.5	31.3	80
C[C@@H](NC(=O)CN1Cc2c(ccc(F)c2F)NC1=O)c1ccc(C#N)cn1 [Compound B135]	15880	1618	510
C[C@H](NC(=O)CN1Cc2c(ccc(F)c2F)NC1=O)c1ccc(C#N)cn1 [Compound B136]	764	64.5	420
C[C@@H](NC(=O)CN1C(=O)Nc2ccc(F)cc2C12CC2)c1ccc(C#N)cn1 [Compound B137]	699.5	115.5	120
C[C@H](NC(=O)CN1C(=O)Nc2ccc(F)cc2C12CC2)c1ccc(C#N)cn1 [Compound B138]	100000	100000	1530
N#Cc1c(F)ccc2c1CN(CC(=O)N[C@@H]1COc3cc(F)cc(F)c31)C(=O)N2 [Compound B139]	121.5	13.93	50
N#Cc1c(F)ccc2c1CN(CC(=O)N[C@H]1COc3cc(F)cc(F)c31)C(=O)N2 [Compound B140]	55230	1501	1100
C[C@@H](NC(=O)CN1Cc2cc(C#N)ccc2NC1=O)c1ncc(C#N)cc1F [Compound B143]	100000	100000	100000
C[C@H](NC(=O)CN1Cc2cc(C#N)ccc2NC1=O)c1ncc(C#N)cc1F [Compound B144, 2-(6-cyano-2-oxo-1,4-dihydroquinazolin-3-yl)-N-[(1S)-1-(5-cyano-3-fluoropyridin-2-yl)ethyl]acetamide]	47420	2787	720
